Earlier results, collected in patent US20230070788A1, “METHOD FOR DYEING KERATIN MATERIAL, COMPRISING THE USE OF AN ORGANIC C1-C6 ALKOXY SILANE AND A COPOLYMER OF (METH) ACRYLIC ACID AND MALEIC ACID (ANHYDRIDE)” (Henkel AG & Co. KGaA, priority 2019, published 2023).

Conditions: for solubility in water: 25° C.

Row | Molecule | solubility in water | solubility in water (in words) (water at 25° C.)
1 | O=S(=O)([O-])c1ccc(N=Nc2c(O)ccc3ccccc23)cc1.[Na+] [Acid Orange 7, sodium salt of 4-[(2-hydroxy-1-naphthyl)azo]benzenesulfonate] | more than 7 g/L | 
2 | Nc1cc(S(=O)(=O)[O-])cc2cc(S(=O)(=O)[O-])c(N=Nc3ccccc3)c(O)c12.[Na+].[Na+] [Acid Red 33, disodium salt of 5-amino-4-hydroxy-3-(phenylazo)-naphthalene-2,7-disulphonate] | 2.5 mg/mL | 
3 | O=C([O-])c1c(Cl)c(Cl)c(Cl)c(Cl)c1-c1c2c(Br)cc(=O)c(Br)c-2oc2c(Br)c(O)cc(Br)c12.O=C([O-])c1c(Cl)c(Cl)c(Cl)c(Cl)c1-c1c2c(Br)cc(=O)c(Br)c-2oc2c(Br)c(O)cc(Br)c12.[Na+].[Na+] [Acid Red 92, disodium salt of 3,4,5,6-tetrachloro-2-(1,4,5,8-tetrabromo-6-hydroxy-3-oxoxanthen-9-yl)benzoic acid] | greater than 10 g/L | 
4 | O=C([O-])C1=NN(c2ccc(S(=O)(=O)[O-])cc2)C(=O)C1N=Nc1ccc(S(=O)(=O)[O-])cc1.[Na+].[Na+].[Na+] (centres unmarked) [Acid Yellow 23, trisodium salt of 4,5-dihydro-5-oxo-1-(4-sulfophenyl)-4-((4-sulfophenyl)azo)-1H-pyrazole-3-carboxylic acid] |  | readily soluble
5 | mixture of the sodium salts of mono- and disulfonic acids of 2-(2-quinolyl)-1H-indene-1,3(2H)-dione [Acid Yellow 3] | 20 mg/mL | 
